In patent publication US20030152512A1, “Imaging thrombus with glycoprotein llb/llla antagonists” (priority 2001, published 2003):
Non-standard residues stand in square brackets, D forms with d. Residues, ends and D or L forms follow the SMILES beside them. *: point of attachment. X1 = O=C(c1ccc(NN=Cc2ccccc2S(=O)(=O)O)nc1)*; NMeR = CN[C@@H](CCCNC(=N)N)C(=O)O; HYNIC = NNc1ccc(C(=O)*)cn1; 3Amb = NCc1cccc(C(=O)O)c1

Tests used:
[1] = Blood clearance in canine deep vein thrombosis (DVT) model; details: both, mongrel, dog, iv
Method: (§1) Canine Deep Vein Thrombosis Model: This model incorporates the triad of events (hypercoagulatible state, period of stasis, low shear environment) essential for the formation of a venous fibrin-rich actively growing thrombus. The procedure was as follows: Adult mongrel dogs of either sex (9-13 kg) were anesthetized with pentobarbital sodium (35 mg/kg,i.v.) and ventilated with room air via an endotracheal tube (12 strokes/min, 25 ml/kg). For arterial pressure determination, the right femoral artery was cannulated with a saline-filled polyethylene catheter (PE-240) and connected to a Statham pressure transducer (P23ID; Oxnard, Calif.). Mean arterial blood pressure was determined via damping the pulsatile pressure signal. Heart rate was monitored using a cardiotachometer (Biotach, Grass Quincy, Mass.) triggered from a lead II electrocardiogram generated by limb leads. The right femoral vein was cannulated (PE-240) for drug administration. A 5 cm segment of both jugular veins was isolated, freed from fascia and circumscribed with silk suture. A microthermister probe was placed on the vessel which serves as an indirect measure of venous flow. A balloon embolectomy catheter was utilized to induce the 15 min period of stasis during which time a hypercoagulatible state was then induced using 5 U thrombin (American Diagnosticia, Greenwich Conn.) administered into the occluded segment. Fifteen minutes later, flow was reestablished by deflating the balloon. The radiopharmaceutical was infused during the first 5 minutes of reflow and the rate of incorporation monitored using gamma scintigraphy.

venous thrombus = test: Thrombus imaging in canine deep vein thrombosis (DVT) model, gamma scintigraphy (camera ROI); assay type: in vivo, dog; details: for efficacy as thrombus imaging agent (in words): dog DVT model; for Thrombus to Blood Ratio in DVT Model (Camera ROI) / Thrombus to Muscle Ratio in DVT Model (Camera ROI): dog
Method: as §1

Platelet GPIIb/IIIa = target: T1, Platelet GPIIb/IIIa (Canis lupus familiaris, UniProt A0A8I3N5G5+A0A8I3PMU9); test: Platelet GPIIb/IIIa binding assay (inhibition of 125I-fibrinogen binding to activated platelets); details: reagents (compounds of Examples 1-3); activated canine platelets
T1 construct: from tissue
T1 sequence (A0A8I3N5G5 1-1047): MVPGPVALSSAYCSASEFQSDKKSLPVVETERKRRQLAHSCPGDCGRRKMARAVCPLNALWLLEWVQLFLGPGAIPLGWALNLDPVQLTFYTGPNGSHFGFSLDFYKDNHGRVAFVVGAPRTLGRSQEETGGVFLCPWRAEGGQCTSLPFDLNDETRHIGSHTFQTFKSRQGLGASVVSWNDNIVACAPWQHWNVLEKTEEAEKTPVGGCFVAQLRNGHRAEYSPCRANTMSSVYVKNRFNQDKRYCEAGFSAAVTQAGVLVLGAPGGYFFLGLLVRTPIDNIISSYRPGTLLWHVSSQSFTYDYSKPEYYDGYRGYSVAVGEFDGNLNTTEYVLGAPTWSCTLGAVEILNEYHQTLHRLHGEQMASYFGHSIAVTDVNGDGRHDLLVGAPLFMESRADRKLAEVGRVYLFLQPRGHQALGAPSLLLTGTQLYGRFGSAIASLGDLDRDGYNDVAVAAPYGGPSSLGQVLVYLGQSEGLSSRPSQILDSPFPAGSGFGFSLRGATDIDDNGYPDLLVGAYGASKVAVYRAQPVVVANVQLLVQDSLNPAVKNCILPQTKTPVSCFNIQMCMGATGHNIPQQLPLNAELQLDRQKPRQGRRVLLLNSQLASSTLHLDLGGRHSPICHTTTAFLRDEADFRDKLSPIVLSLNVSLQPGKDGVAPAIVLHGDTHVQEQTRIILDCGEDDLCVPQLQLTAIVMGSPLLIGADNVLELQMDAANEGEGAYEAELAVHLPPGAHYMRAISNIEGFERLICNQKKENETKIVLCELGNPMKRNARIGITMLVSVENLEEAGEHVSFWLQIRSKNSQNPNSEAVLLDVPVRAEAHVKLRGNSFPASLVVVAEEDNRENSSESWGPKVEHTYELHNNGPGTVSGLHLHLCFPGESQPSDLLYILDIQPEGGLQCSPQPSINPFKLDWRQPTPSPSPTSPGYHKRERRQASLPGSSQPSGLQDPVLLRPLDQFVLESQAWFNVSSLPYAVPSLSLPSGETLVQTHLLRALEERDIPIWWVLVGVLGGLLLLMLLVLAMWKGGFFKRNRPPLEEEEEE
T1 sequence (A0A8I3PMU9 1-919): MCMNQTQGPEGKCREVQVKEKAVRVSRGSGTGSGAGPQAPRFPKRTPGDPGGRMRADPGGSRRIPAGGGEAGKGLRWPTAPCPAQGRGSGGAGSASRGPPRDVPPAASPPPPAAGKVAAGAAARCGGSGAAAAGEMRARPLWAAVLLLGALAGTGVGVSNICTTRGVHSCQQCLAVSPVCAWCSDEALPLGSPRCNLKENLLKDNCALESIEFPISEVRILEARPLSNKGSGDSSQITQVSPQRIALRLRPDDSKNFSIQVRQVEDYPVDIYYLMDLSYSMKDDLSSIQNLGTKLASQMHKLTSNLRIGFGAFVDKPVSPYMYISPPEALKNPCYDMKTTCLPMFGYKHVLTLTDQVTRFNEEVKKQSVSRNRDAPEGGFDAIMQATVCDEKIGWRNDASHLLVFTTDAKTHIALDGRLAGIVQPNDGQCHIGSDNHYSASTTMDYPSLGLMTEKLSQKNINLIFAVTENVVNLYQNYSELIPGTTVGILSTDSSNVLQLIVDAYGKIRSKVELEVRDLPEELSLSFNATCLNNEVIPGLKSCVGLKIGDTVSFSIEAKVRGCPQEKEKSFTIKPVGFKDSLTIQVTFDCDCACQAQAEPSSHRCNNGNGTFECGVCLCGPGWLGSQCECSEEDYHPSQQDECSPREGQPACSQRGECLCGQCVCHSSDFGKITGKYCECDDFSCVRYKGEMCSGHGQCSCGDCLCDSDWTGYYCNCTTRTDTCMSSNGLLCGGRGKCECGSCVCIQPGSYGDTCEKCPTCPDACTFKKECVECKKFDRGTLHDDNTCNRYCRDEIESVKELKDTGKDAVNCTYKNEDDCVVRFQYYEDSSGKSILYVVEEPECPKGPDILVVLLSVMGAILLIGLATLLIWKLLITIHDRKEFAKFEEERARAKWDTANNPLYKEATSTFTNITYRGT
Method: Platelet GPIIb/IIIa Binding Assay:
During isolation, platelets were rendered quiescent by the addition of aspirin and when appropriate, primed by the addition of PGE 1. Experimentation was completed in a microtiter format with final concentrations between 1 and 2×10^7 platelets/well. Platelets were activated by the addition of CaCl2 (2 mM) and thrombin (0.2 U/mL) while non-activated platelets received buffer. Hirudin (0.5 U/mL) was added to stop the activation reaction.

SMILES | tissue uptake at 0 h [1] [%ID/g] | tissue uptake at 0.25 h [1] [%ID/g] | tissue uptake at 0.5 h [1] [%ID/g] | tissue uptake at 1 h [1] [%ID/g] | tissue uptake at 1.5 h [1] [%ID/g] | tissue uptake at 2 h [1] [%ID/g] | efficacy as thrombus imaging agent (in words) (venous thrombus) | Thrombus to Blood Ratio in DVT Model (Camera ROI) (venous thrombus; time 30 min) | Thrombus to Muscle Ratio in DVT Model (Camera ROI) (venous thrombus; time 30 min) | Thrombus to Blood Ratio in DVT Model (Camera ROI) (venous thrombus; time 120 min) | Thrombus to Muscle Ratio in DVT Model (Camera ROI) (venous thrombus; time 120 min) | IC50 (Platelet GPIIb/IIIa) [nM] | other results
CC(C)[C@H]1NC(=O)c2cc(cc(CNC(=O)[C@H](CC(=O)O)NC(=O)c3ccc(NN)nc3)c2)CNC(=O)[C@H](CC(=O)O)NC(=O)CNC(=O)[C@H](CCCNC(=N)N)N(C)C1=O (99mTc complex, metal not drawn) [Example 4] | 0.141 | 0.07 | 0.067 | 0.053 | 0.046 | 0.045 | effective thrombus imaging agents | 2.29 ± 0.60 | 4.31 ± 1.33 | 3.36 ± 0.99 | 4.70 ± 1.05 | – | Thrombus to Blood Ratio in DVT Model (Camera ROI) (venous thrombus; time 15 min, listed as Ex. 4): 2.00 ± 0.25; Thrombus to Muscle Ratio in DVT Model (Camera ROI) (venous thrombus; time 15 min, listed as Ex. 4): 3.18 ± 0.45; Thrombus to Blood Ratio in DVT Model (Camera ROI) (venous thrombus; time 60 min, listed as Ex. 4): 2.86 ± 0.31; Thrombus to Muscle Ratio in DVT Model (Camera ROI) (venous thrombus; time 60 min, listed as Ex. 4): 4.31 ± 0.79
CN1C(=O)[C@@H](CCCCNC(=O)c2ccc(NN)nc2)NC(=O)c2cccc(c2)CNC(=O)[C@H](CC(=O)O)NC(=O)CNC(=O)[C@@H]1CCCNC(=N)N (99mTc complex, metal not drawn) [Example 5] (cyclo([NMeR]GD[3Amb][dK](HYNIC))) | 0.11 ± 0.01 | 0.039 ± 0.003 | 0.027 ± 0.003 | 0.021 ± 0.002 | 0.018 ± 0.002 | 0.017 ± 0.002 | effective thrombus imaging agents | 1.86 ± 0.23 | 2.27 ± 0.29 | 2.57 ± 0.25 | 3.34 ± 0.18 | – | Thrombus to Blood Ratio in DVT Model (Camera ROI) (venous thrombus; time 15 min, listed as Ex. 5): 1.64 ± 0.21; Thrombus to Muscle Ratio in DVT Model (Camera ROI) (venous thrombus; time 15 min, listed as Ex. 5): 2.12 ± 0.29; Thrombus to Blood Ratio in DVT Model (Camera ROI) (venous thrombus; time 60 min, listed as Ex. 5): 2.13 ± 0.23; Thrombus to Muscle Ratio in DVT Model (Camera ROI) (venous thrombus; time 60 min, listed as Ex. 5): 2.66 ± 0.29
CC(C)[C@H]1NC(=O)c2cc(cc(CNC(=O)[C@H](CC(=O)O)NC(=O)c3ccc(N/N=C/c4ccccc4S(=O)(=O)O)nc3)c2)CNC(=O)[C@H](CC(=O)O)NC(=O)CNC(=O)[C@H](CCCNC(=N)N)N(C)C1=O [Example 1] | – | – | – | – | – | – | – | – | – | – | – | 7 | –
CN1C(=O)[C@@H](CCCCNC(=O)c2ccc(NN=Cc3ccccc3S(=O)(=O)O)nc2)NC(=O)c2cccc(c2)CNC(=O)[C@H](CC(=O)O)NC(=O)CNC(=O)[C@@H]1CCCNC(=N)N [Example 2, cyclo{N-Me-Arg-Gly-Asp-Mamb-D-Lys([2-[[[5-[carbonyl]-2-pyridinyl]hydrazono]methyl]-benzenesulfonic acid])}] (cyclo([NMeR]GD[3Amb][dK](X1))) | – | – | – | – | – | – | – | – | – | – | – | 14 | –
N=C(N)c1ccc(C2=NOC(CC(=O)NCC(NC(=O)c3ccc(NN=Cc4ccccc4S(=O)(=O)O)nc3)C(=O)O)C2)cc1 (stereo not drawn) [Example 3] | – | – | – | – | – | – | – | – | – | – | – | 66 | –
CC(C)[C@H]1NC(=O)c2cc(cc(NC(=O)CCCCCNC(=O)c3ccc(NN)nc3)c2)CNC(=O)[C@H](CC(=O)O)NC(=O)CNC(=O)[C@H](CCCNC(=N)N)N(C)C1=O [Example 7, ^99mTc(cyclo(D-Val-NmeArg-Gly-Asp-Mamb(hydrazino-nicotinyl-5-Aca)))(tricine)(TPPTS), metal not drawn] | 0.119 ± 0.003 | 0.08 ± 0.003 | 0.066 ± 0.004 | 0.059 ± 0.001 | 0.05 ± 0.002 | 0.049 ± 0.001 | effective thrombus imaging agents | 3.10 ± 0.42 | 4.80 ± 0.38 | 6.60 ± 1.42 | 9.90 ± 2.64 | – | Thrombus to Blood Ratio in DVT Model (Camera ROI) (venous thrombus; time 15 min, listed as Ex. 7): 2.10 ± 0.10; Thrombus to Muscle Ratio in DVT Model (Camera ROI) (venous thrombus; time 15 min, listed as Ex. 7): 3.40 ± 0.30; Thrombus to Blood Ratio in DVT Model (Camera ROI) (venous thrombus; time 60 min, listed as Ex. 7): 5.30 ± 0.91; Thrombus to Muscle Ratio in DVT Model (Camera ROI) (venous thrombus; time 60 min, listed as Ex. 7): 7.00 ± 1.40
